Results as given in PMC2074590 (British Journal of Cancer, 1996).
“Also recorded” adds a separate entry of the source.

How the values were obtained:
[1] = tested on: advanced breast cancer resistant to tamoxifen; test: Tumour response to therapy, UICC criteria; type: in vivo, human; design: key to Response to 182780: PD: progressive disease; NC: no change; PR: partial response
Protocol: (§1) Bridsh Journal of Cancer (1996) 74, 300-308 ? […] The agent was administered as a monthly depot intramuscular injection. […] The study was approved by the ethics committees of each clinical centre. Patients were eligible for the study if they were post- menopausal and age less than 81 years, with histologically verified breast cancer. […] Patients were excluded if they had serious intercurrent disease, a WHO performance status of greater than 2, and a life expectancy of less than 3 months or had received previous cytotoxic chemotherapy for advanced breast cancer. […] Patients 5-19 received 250 mg month-1 i.m. from the outset. […] Tumour response to therapy was evaluated according to UICC criteria (Hayward et al., 1977). To qualify for the 'no change' category, tumour growth had to stabilise for more than 6 months (Howell et al., 1988; Robertson et al., 1989). Body weight was recorded at each monthly review in the majority of patients. […] The procedure was applied after solid base clean up of a diethyl ether/hexane extract of serum. The study limit of quantification was 0.68 ng ml-'. […] Gonadotrophins follicle-stimulating hormone and lutenising hormone (FSH and LH) and SHBG were measured by RIA in the Regional Radioimmunoassay Laboratory of the University Hospital of South Manchester. Prolactin was measured by immunoradiometric assay using reagents supplied by Netria. Total cholesterol levels were determined enzymatically using a commercially available reagent (Diamed, Switzerland). Triglyceride levels were determined by the glyceryl phosphate oxidase-peroxidase-antiperox- idase method using a commercially available kit (Boehringer Mannheim, Germany). High-density lipoprotein (HDL) cholesterol levels were measured after pretreatment of the serum samples with buffered magnesium phosphotungstate, which selectively precipitates low-density lipoprotein (LDL) cholesterol, very low-density lipoprotein (VLDL) cholesterol and chylomicrons, leaving HDL cholesterol in the super- natant. Serum levels of LDL cholesterol were calculated using the Friedewald equation (Friedewald et al., 1972). Endometrial assessment Endometrial thickness was measured in transverse section by transabdominal ultrasound using a Siemens Sonoline SL2 with a 3.5 MHz sector probe. Baseline and repeat scans at 3-6 monthly intervals were performed in five patients. […] Pharmacokinectic data were analysed using para- metric statistics. Data relating to body weight, serum gonadotrophin, SHBG and lipid levels were analysed using non-parametric statistics. The null hypothesis was rejected at a probability level of P<0.05. […] However, samples were not available between day 2 and day 8.

[2] = tested on: serum FSH, LH, prolactin, SHBG; test: Serum FSH, LH, prolactin and SHBG before and during treatment; type: in vivo, human
Protocol: as §1

[3] = tested on: total cholesterol, LDL cholesterol, HDL cholesterol, triglyceride; test: Serum lipid levels during treatment; type: in vivo, human; details: 12 patients
Protocol: (§2) Bridsh Journal of Cancer (1996) 74, 300-308 ? […] The agent was administered as a monthly depot intramuscular injection. […] The study was approved by the ethics committees of each clinical centre. Patients were eligible for the study if they were post- menopausal and age less than 81 years, with histologically verified breast cancer. […] Patients were excluded if they had serious intercurrent disease, a WHO performance status of greater than 2, and a life expectancy of less than 3 months or had received previous cytotoxic chemotherapy for advanced breast cancer. […] Patients 5-19 received 250 mg month-1 i.m. from the outset. […] Tumour response to therapy was evaluated according to UICC criteria (Hayward et al., 1977). […] Body weight was recorded at each monthly review in the majority of patients. […] The study limit of quantification was 0.68 ng ml-'. […] Gonadotrophins follicle-stimulating hormone and lutenising hormone (FSH and LH) and SHBG were measured by RIA in the Regional Radioimmunoassay Laboratory of the University Hospital of South Manchester. Prolactin was measured by immunoradiometric assay using reagents supplied by Netria. Total cholesterol levels were determined enzymatically using a commercially available reagent (Diamed, Switzerland). […] Serum levels of LDL cholesterol were calculated using the Friedewald equation (Friedewald et al., 1972). […]

[4] = Side-effects, local and systemic drug tolerability; type: in vivo, human
Protocol: as §1

endometrium = test: Endometrial assessment (transabdominal ultrasound thickness, histology); type: in vivo, human
Protocol: as §2

breast cancer cells = tested on: breast cancer cells; design: method as in Wakeling and Bowler, 1987, 1988; details: ref Wakeling and Bowler, 1987, 1988; cited from earlier work
[5] = tested on: Ki67, ER, PgR, pS2 in primary breast cancer; details: short-acting propylene glycol-based formulation, daily i.m. for 1 week before surgery, ref DeFriend et al., 1994b, Nicholson et al.; cited from earlier work
ER = tested on: ER; design: method as in Wakeling et al., 1991; details: ref Wakeling et al., 1991; cited from earlier work
[6] = tested on: endometrial proliferation; design: method as in Thomas et al., 1993; details: short-term studies in women, at serum concentrations similar to the present study; ref Thomas et al., 1993; cited from earlier work

C[C@]12CC[C@@H]3c4ccc(O)cc4C[C@@H](CCCCCCCCC[S+]([O-])CCCC(F)(F)C(F)(F)F)[C@H]3[C@@H]1CC[C@@H]2O (stereo partly drawn) [ICI 182780, 7a-[9(4,4,5,5,pentafluoropentyl-sulphinyl)nonyl]oestra-1 ,3,5,(10)-triene-3,17,B-diol]
Median duration of response ([1]; 13 responding patients): 25 months | Partial response rate ([1]; 19 patients): 37% | Progression rate ([1]; 19 patients): 31% | Patients responding (partial response + no change) ([1]; 19 patients, after progression on tamoxifen): 69% | No change response rate ([1]; 19 patients, stabilisation for more than 6 months): 32% | Duration of response ([1]; NC patient with 61 months adjuvant tamoxifen (A61, = patient 15), from Table III): ≥ 23 months | Patients still in remission and continuing treatment ([1]; after 30-33 months): five | Association between duration of treatment with tamoxifen and subsequent response ([1]; in vivo): no association | Responses in women who progressed while receiving tamoxifen for advanced breast cancer ([1]; in vivo): six of the nine | Responses in women who relapsed after tamoxifen as adjuvant therapy ([1]; in vivo): seven of the ten | Number of patients with progression ([1]; of 19 patients): 6 patients | Response to 182780 ([1]; patient 1 (donor kappa)): PD | Duration of response ([1]; patient 1, PD): < 2 months | Response to 182780 ([1]; patient 2 (donor eta)): NC | Duration of response ([1]; patient 2, NC): 29 months | Response to 182780 ([1]; patient 3 (donor mu)): PR | Duration of response ([1]; patient 3, PR): 12 months | Response to 182780 ([1]; patient 4 (donor lambda)): PD | Duration of response ([1]; patient 4, PD): < 2 months | Response to 182780 ([1]; patient 5 (donor sigma)): PR | Duration of response ([1]; patient 5, PR): 8 months | Response to 182780 ([1]; patient 6 (donor delta)): PR | Duration of response ([1]; patient 6, PR): 3 months | Response to 182780 ([1]; patient 7 (donor gamma)): PD | Duration of response ([1]; patient 7, PD): < 2 months | Response to 182780 ([1]; patient 8 (donor theta)): PR | Duration of response ([1]; patient 8, PR): 25 months | Response to 182780 ([1]; patient 9 (NT)): PD | Duration of response ([1]; patient 9, PD): < 2 months | Response to 182780 ([1]; patient 10 (donor iota)): PR | Duration of response ([1]; patient 10, PR, + = continuing): ≥ 33 months | Response to 182780 ([1]; patient 11 (donor epsilon)): PD | Duration of response ([1]; patient 11, PD): < 2 months | Response to 182780 ([1]; patient 12 (donor nu)): NC | Duration of response ([1]; patient 12, NC, + = continuing): ≥ 33 months | Response to 182780 ([1]; patient 13 (donor tau)): PD | Duration of response ([1]; patient 13, PD): < 2 months | Response to 182780 ([1]; patient 14 (donor xi)): PR | Duration of response ([1]; patient 14, PR, + = continuing): ≥ 32 months | Response to 182780 ([1]; patient 15 (donor omicron)): NC | Response to 182780 ([1]; patient 16 (donor rho)): PR | Duration of response ([1]; patient 16, PR): 25 months | Response to 182780 ([1]; patient 17 (donor zeta)): NC | Duration of response ([1]; patient 17, NC): 9 months | Response to 182780 ([1]; patient 18 (donor beta)): NC | Duration of response ([1]; patient 18, NC, + = continuing): ≥ 30 months | Response to 182780 ([1]; patient 19 (donor pi)): NC | Duration of response ([1]; patient 19, NC, + = continuing): ≥ 30 months | Time to objective disease progression in unresponsive patients ([1]; six patients unresponsive de novo): ≤ 2 months | Serum SHBG, median level ([2]; after 8 months of treatment, median pretreatment 100, P=NS): 55 nM | Serum LH, median post-treatment value ([2]; first 3 months of administration, median pre-treatment 26, P<0.005): 42 IU 1-1 | Serum FSH, median post-treatment value ([2]; first 3 months of administration, median pre-treatment 26, P<0.05): 52 IU l-1 | Change in serum SHBG ([2]; in vivo): no significant changes; also recorded: overall trend to decrease | Change in serum gonadotrophin levels after the first 3 months ([2]; in vivo): no further significant overall changes | Change in serum prolactin ([2]; throughout the treatment period): no significant changes; also recorded: did not change significantly | Change in serum lipids (total cholesterol, LDL cholesterol, HDL cholesterol, triglyceride) [3]: no significant changes | Serious drug-related adverse events ([4]; 19 patients): No serious drug-related adverse events | Vaginal dryness or altered libido ([4]; direct questioning at each monthly attendance): None of the patients reported | Frequency of side-effects ([4]; in vivo): infrequent | Full blood count and biochemical profile ([4]; in vivo): No clinically significant changes | Hot flushes and night sweats ([4]; in vivo): not induced; also recorded: not associated with any alteration | Injection-site events: erythema ([4]; in vivo): a third patient had local erythema at the injection site on one occasion | Local tolerance at the site of injection ([4]; long-acting formulation, 5 ml i.m.): well tolerated locally | Patients reporting minor systemic adverse events ([4]; of 19 patients): two | Injection-site events: bruising, tenderness ([4]; one occasion each): One patient developed bruising over the buttock and a second developed tenderness at the injection site | Endometrial histology (endometrium; one patient, hysterectomy after 18 months on treatment): atrophic post-menopausal pattern with cystic change | Endometrial thickness / effect on endometrium (endometrium; serial ultrasound in five responding patients, up to 15 months): no apparent effect; also recorded: remained unchanged | Potency as inhibitor of cell growth in vitro relative to tamoxifen (breast cancer cells): up to two orders of magnitude more potent than tamoxifen | Expression of ER, PgR and pS2 vs pretreatment samples [5]: reduced or absent expression | Tumour proliferation (Ki67 expression) vs pretreatment samples [5]: reduced proliferation | Potency and affinity for the ER relative to ICI 164384 (ER): greater potency and affinity for the ER | Effect on endometrial proliferation [6]: inhibited endometrial proliferation
